“And” between values parts separate entries of the source, which are not always exact repeats. Identical values can stand only once. Toxic doses and inconclusive results are not listed. Rule as the data show it: active = T/C of 150% or more; inactive = T/C below 125%.
System: L1210 leukemia ip in BDF1 mice, survival T/C
Experiment: NCI In Vivo Anticancer Drug Screen. Data for tumor model L1210 Leukemia (intraperitoneal) in B6D2F1 (BDF1) mice
Settings: endpoint: mean survival time, higher = longer survival
In short: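 Tumor cells were implanted, animals were treated, and survival was followed. The result divides the treated measurement by the vehicle-control measurement.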

[1] = dose: 50.0 mg/kg/injection, schedule: Q01DX009 (ip), vehicle: saline
[2] = dose: 100.0 mg/kg/injection, schedule: Q04DX002 (ip), vehicle: Klucel (hydroxypropylcellulose) (HPC)
[3] = dose: 200.0 mg/kg/injection, schedule: Q04DX002 (ip), vehicle: Klucel (hydroxypropylcellulose) (HPC)
[4] = dose: 400.0 mg/kg/injection, schedule: Q04DX002 (ip), vehicle: Klucel (hydroxypropylcellulose) (HPC)
[5] = dose: 100.0 mg/kg/injection, schedule: Q01DX001 (ip), vehicle: carboxymethylcellulose (CMC)
[6] = dose: 200.0 mg/kg/injection, schedule: Q01DX001 (ip), vehicle: carboxymethylcellulose (CMC)
[7] = dose: 400.0 mg/kg/injection, schedule: Q01DX001 (ip), vehicle: carboxymethylcellulose (CMC)
[8] = dose: 100.0 mg/kg/injection, schedule: Q04DX003 (ip), vehicle: saline
[9] = dose: 200.0 mg/kg/injection, schedule: Q04DX003 (ip), vehicle: saline
[10] = dose: 400.0 mg/kg/injection, schedule: Q04DX003 (ip), vehicle: saline
[11] = dose: 100.0 mg/kg/injection, schedule: Q01DX001 (ip), vehicle: saline
[12] = dose: 200.0 mg/kg/injection, schedule: Q01DX001 (ip), vehicle: saline
[13] = dose: 400.0 mg/kg/injection, schedule: Q01DX001 (ip), vehicle: saline
[14] = dose: 100.0 mg/kg/injection, schedule: Q01DX009 (ip), vehicle: Klucel (hydroxypropylcellulose) (HPC)
[15] = dose: 100.0 mg/kg/injection, schedule: Q04DX003 (ip), vehicle: Klucel (hydroxypropylcellulose) (HPC)
[16] = dose: 200.0 mg/kg/injection, schedule: Q01DX009 (ip), vehicle: Klucel (hydroxypropylcellulose) (HPC)
[17] = dose: 200.0 mg/kg/injection, schedule: Q04DX003 (ip), vehicle: Klucel (hydroxypropylcellulose) (HPC)
[18] = dose: 400.0 mg/kg/injection, schedule: Q01DX009 (ip), vehicle: Klucel (hydroxypropylcellulose) (HPC)
[19] = dose: 400.0 mg/kg/injection, schedule: Q04DX003 (ip), vehicle: Klucel (hydroxypropylcellulose) (HPC)
[20] = dose: 50.0 mg/kg/injection, schedule: Q04DX003 (ip), vehicle: saline
[21] = dose: 12.5 mg/kg/injection, schedule: Q01DX009 (ip), vehicle: saline with Tween-80
[22] = dose: 12.5 mg/kg/injection, schedule: Q04DX003 (ip), vehicle: saline with Tween-80
[23] = dose: 25.0 mg/kg/injection, schedule: Q01DX009 (ip), vehicle: saline with Tween-80
[24] = dose: 50.0 mg/kg/injection, schedule: Q01DX009 (ip), vehicle: saline with Tween-80
[25] = dose: 50.0 mg/kg/injection, schedule: Q01DX001 (ip), vehicle: saline

Measured: T/C

CCCN1CCc2cc(OC)c(OC)cc2C1Cc1ccc(OC)c(OC)c1 (stereo unspecified)
inactive: dose: 75.0 mg/kg/injection, schedule: Q01DX001 (ip), vehicle: other 109 % of control | dose: 150.0 mg/kg/injection, schedule: Q01DX001 (ip), vehicle: other 102 % of control

CN(C)N=C1CCCC1
inactive: [1] 103 % of control | dose: 100.0 mg/kg/injection, schedule: Q01DX009 (ip), vehicle: saline 103 % of control

C[n+]1ccc(C(=O)O)c2ccccc21
inactive: dose: 75.0 mg/kg/injection, schedule: Q01DX001 (ip), vehicle: saline 94 % of control | dose: 75.0 mg/kg/injection, schedule: Q04DX003 (ip), vehicle: acetone 92 % of control | dose: 150.0 mg/kg/injection, schedule: Q01DX001 (ip), vehicle: saline 95 % of control | dose: 150.0 mg/kg/injection, schedule: Q04DX003 (ip), vehicle: acetone 89 % of control | dose: 300.0 mg/kg/injection, schedule: Q01DX001 (ip), vehicle: saline 90 % of control

CCCP(=S)(CC)CC
inactive: [2] 90 % of control | [3] 93 % of control | [4] 90 % of control

O=C(O)c1ccc(CNc2ccc(C(=O)CCl)cc2)cc1
inactive: [5] 102 % of control | [6] 102 % of control | [7] 118 % of control

CCC(CO)NCc1cc(=O)[nH]c(=O)[nH]1 (stereo unspecified)
inactive: [8] 96 % of control | [9] 96 % of control | [10] 102 % of control

COC1OC(CO)C2OC12 (stereo unspecified)
inactive: dose: 75.0 mg/kg/injection, schedule: Q01DX009 (ip), vehicle: saline 98 % of control and 107 % of control | [11] 104 % of control | [8] 107 % of control and 100 % of control | dose: 150.0 mg/kg/injection, schedule: Q01DX009 (ip), vehicle: saline 110 % of control and 93 % of control | [12] 102 % of control and 96 % of control | [9] 98 % of control and 89 % of control | dose: 300.0 mg/kg/injection, schedule: Q01DX009 (ip), vehicle: saline 102 % of control and 100 % of control | [13] 104 % of control | [10] 100 % of control and 104 % of control

COc1ccc(C=Nc2ccnc3cc(OC)c(OC)cc23)cc1OC
inactive: dose: 100.0 mg/kg/injection, schedule: Q01DX001 (ip), vehicle: saline with Tween-80 93 % of control | dose: 200.0 mg/kg/injection, schedule: Q01DX001 (ip), vehicle: saline with Tween-80 104 % of control | dose: 400.0 mg/kg/injection, schedule: Q01DX001 (ip), vehicle: saline with Tween-80 102 % of control

CSc1ccc(/C=C/c2ccc([N+](=O)[O-])cc2)cc1
inactive: [14] 97 % of control | [15] 91 % of control | [16] 88 % of control | [17] 93 % of control | [18] 92 % of control | [19] 88 % of control

Cc1ccccc1SC(=O)Nc1ccc([N+](=O)[O-])cc1Cl
inactive: [14] 96 % of control | [16] 94 % of control | [18] 94 % of control

CC(C)CN(CC(C)C)[N+](=O)[O-]
inactive: dose: 100.0 mg/kg/injection, schedule: Q01DX001 (ip), vehicle: Klucel (hydroxypropylcellulose) (HPC) 97 % of control | dose: 200.0 mg/kg/injection, schedule: Q01DX001 (ip), vehicle: Klucel (hydroxypropylcellulose) (HPC) 114 % of control | dose: 400.0 mg/kg/injection, schedule: Q01DX001 (ip), vehicle: Klucel (hydroxypropylcellulose) (HPC) 97 % of control

O=C(Nc1c(Oc2ccc(Cl)cc2Cl)ccc(Cl)c1S(=O)(=O)O)Nc1c(Oc2ccc(Cl)cc2Cl)ccc(Cl)c1S(=O)(=O)O
inactive: [20] 101 % of control | [8] 97 % of control | [9] 95 % of control

OCCC1COc2ccccc2O1 (stereo unspecified)
inactive: [5] 97 % of control | [6] 95 % of control | [7] 103 % of control

Cc1nc2c(O)ccc(O)c2nc1C
inactive: dose: 3.12 mg/kg/injection, schedule: Q04DX003 (ip), vehicle: saline with Tween-80 100 % of control | dose: 6.25 mg/kg/injection, schedule: Q04DX003 (ip), vehicle: saline with Tween-80 96 % of control | [21] 94 % of control | [22] 100 % of control | [23] 96 % of control | [24] 94 % of control

CN1CC(C(=O)N2CCCCC2)C=C2c3cccc4[nH]cc(c34)CC21 (stereo unspecified)
inactive: dose: 3.12 mg/kg/injection, schedule: Q01DX009 (ip), vehicle: saline 95 % of control | dose: 6.25 mg/kg/injection, schedule: Q01DX009 (ip), vehicle: saline 97 % of control | dose: 12.5 mg/kg/injection, schedule: Q01DX009 (ip), vehicle: saline 98 % of control | dose: 25.0 mg/kg/injection, schedule: Q01DX009 (ip), vehicle: saline 104 % of control | dose: 25.0 mg/kg/injection, schedule: Q04DX003 (ip), vehicle: saline 100 % of control | [1] 93 % of control | [20] 98 % of control | [8] 97 % of control

CC(O)CCc1ccc(OC(=O)c2ccccc2)cc1 (stereo unspecified)
inactive: [25] 101 % of control | [11] 92 % of control | [12] 101 % of control | [13] 92 % of control

O=[N+]([O-])c1ccc2conc2c1
inactive: dose: 50.0 mg/kg/injection, schedule: Q01DX001 (ip), vehicle: carboxymethylcellulose (CMC) 94 % of control | [5] 97 % of control | [6] 92 % of control

BrCC1CCCCO1 (stereo unspecified)
inactive: [21] 94 % of control | [22] 108 % of control | [23] 99 % of control | dose: 25.0 mg/kg/injection, schedule: Q04DX003 (ip), vehicle: saline with Tween-80 108 % of control | [24] 99 % of control | dose: 50.0 mg/kg/injection, schedule: Q04DX003 (ip), vehicle: saline with Tween-80 97 % of control

Cc1cnc(-n2cc(C)c(-c3ccccc3O)n2)nc1-c1ccccc1O
inactive: [2] 96 % of control | [3] 88 % of control | [4] 100 % of control

Cc1c(C)c2c(C#N)c3ccccc3nc2c2ccccc12
inactive: dose: 50.0 mg/kg/injection, schedule: Q04DX003 (ip), vehicle: Klucel (hydroxypropylcellulose) (HPC) 102 % of control | [15] 102 % of control | [17] 107 % of control | [19] 103 % of control

CCOc1ccn(C)c(=O)n1
inactive: [25] 90 % of control | [11] 95 % of control

CC1(C)C(=O)C2CCC1C2 (stereo unspecified)
inactive: [2] 90 % of control | [3] 87 % of control | [4] 103 % of control

COc1ccc(OCCS(=O)(=O)C(CCOS(C)(=O)=O)COS(C)(=O)=O)cc1 (stereo unspecified)
inactive: [14] 96 % of control | [16] 93 % of control | [18] 98 % of control

CCCCCCCCCCCCCCCCCCNC(=O)Nc1ccc(OC)cc1OC
inactive: [2] 101 % of control | [3] 90 % of control | [4] 90 % of control

O=S(=O)(O)c1cc(O)c2ccc(NNC(O)c3ccc(Cl)c(Cl)c3)cc2c1 (stereo unspecified)
inactive: [8] 87 % of control | [9] 96 % of control | [10] 98 % of control

CC1C(=O)NN=C1c1ccc([N+](=O)[O-])cc1 (stereo unspecified)
inactive: [5] 100 % of control | [6] 100 % of control | [7] 94 % of control

CN(CCO)Cc1ccc(Cl)cc1
inactive: dose: 150.0 mg/kg/injection, schedule: Q01DX015 (ip), vehicle: saline 91 % of control

N#CCN1C(=O)c2ccccc2S1(=O)=O
inactive: dose: 222.0 mg/kg/injection, schedule: Q01DX Z (ip), vehicle: methylcellulose (MC) 110 % of control | dose: 333.0 mg/kg/injection, schedule: Q01DX Z (ip), vehicle: methylcellulose (MC) 113 % of control | dose: 500.0 mg/kg/injection, schedule: Q01DX Z (ip), vehicle: methylcellulose (MC) 102 % of control

O=C1c2cccc(Cl)c2C(=O)c2c(Cl)cccc21
inactive: [2] 100 % of control and 91 % of control | [3] 94 % of control | [4] 102 % of control and 113 % of control
